According to patent publication US4530930A, “Antimicrobial 1-ethyl-6,8-difluoro-1,4-dihydro-7-(1-imidazolyl)-4-oxoquinoline-3-carbo xylic acid derivatives” (Kanebo, Ltd., priority 1982, dated 1985):
≈ marks a conversion by molar mass, not a printed value.

Legend:
[1] = system: Serratia marcescens IAM 1184; test: MIC; assay type: cell-based; settings: IAM1184, gram negative
Procedure: (§1) In accordance with the method as disclosed in Chemotherapy, Vol. 29, pages 76-79 (1981), MIC (μg/ml) of each test compound was measured.

[2] = system: Salmonella paratyphi 1015; test: MIC; assay type: cell-based; settings: Salmonella enterica
Procedure: as §1

[3] = system: Bacillus subtilis ATCC 6633; test: MIC; assay type: cell-based; settings: ATCC6633, gram positive
Procedure: as §1

[4] = system: Escherichia coli NIHJ JC-2; test: MIC; assay type: cell-based; settings: NIHJJC2, gram negative
Procedure: as §1

[5] = system: Staphylococcus epidermidis; test: MIC; assay type: cell-based; settings: gram positive
Procedure: as §1

[6] = system: Klebsiella pneumoniae PCI-602; test: MIC; assay type: cell-based; settings: PCI602, gram negative
Procedure: as §1

[7] = system: Staphylococcus aureus FDA 209P JC-1; test: MIC; assay type: cell-based; settings: FDA209P, gram positive
Procedure: as §1

[8] = system: Pseudomonas aeruginosa IFO 3445; test: MIC; assay type: cell-based; settings: IFO3445, gram negative, read-out: MIC
Procedure: as §1

Proteus Vulgaris HX-19 = test: MIC; assay type: cell-based; settings: gram negative
Procedure: as §1

[9] = Bioavailability in oral administration in mice; assay type: in vivo, ddY-strain male mice; settings: for concentration at 0.5 h / concentration at 1 h / concentration at 2 h / concentration at 4 h / AUC at 4 h: mouse
Procedure: Each of the test compounds was suspended in a 0.5% sodium carboxymethylcellulose to prepare a suspension having a concentration of 5 mg/ml of the compound.
ddY-strain male mice (5 week old, weighing 22 to 25 g, three per group) were used. The suspension was orally administered to mice fasted for 16 hours. The dose of the test compound was adjusted to 50 mg/kg of body weight of animal. 30, 60, 120, and 240 minutes after the administration of the test compound, blood was taken out from each mouse, and the blood sample thus obtained was centrifuged at 3,000 rpm for 20 minutes to obtain a serum sample.

ddY-strain male mice [10] = test: in vivo; settings: mice, p.o., one week, Weil method; 10080 min
Procedure: (§2) The acute toxicities in oral administration and intravenous injection of the test compounds were tested as follows:
(§3) In oral administration: To ddY-strain male mice (weighing 20-25 g, five per group) was administered orally a suspension of each test compound in a 0.5% sodium carboxymethylcellulose. […] J. Biometric Soc., 8, 249 (1959)].

[11] = Bioavailability in oral administration in rats; assay type: in vivo, Wistar-strain male rats; design: AUC at 4 h: concentration or dose not given beside the values; settings: rat
Procedure: Each of the test compounds was suspended in a 0.5% sodium carboxymethylcellulose to prepare a suspension having a concentration of 5 mg/ml of the test compound.
Wistar-strain male rats (weighing 160 g ±20 g, three per group) were used. The suspension was orally administered to rats fasted 16 hours. 30, 60, 120, and 240 minutes after the administration of the test compound, blood was taken out from the rats. The blood was centrifuged at 3,000 rpm for 20 minutes to obtain a plasma sample. In the same manner as described in Experiment 2, the concentration (μg/ml) of test compound in plasma and also AUC (μg.hr/ml) were measured.

ddY-strain male mice [12] = test: in vivo; assay type: in vivo; settings: mice, i.v., one week, Weil method; 10080 min
Procedure: as §2
In intravenous administration: Each of the test compounds was dissolved in 1N aqueous sodium hydroxide solution and thereto was added a phosphoric acid-saline buffer (pH 7.2) to prepare a test solution. The test solution was intravenously injected to ddy-strain male mice (weighing 20-25 g, five per group). One week after the administration of the test solution, the LD50 was determined in accordance with Weil method.

in vivo = settings: mouse, in vivo, po; mice, one week, Weil method
Procedure: as §2, §3

[13] = serum, mice, oral 50 mg/kg, after 30 min., read-out: Concentration in serum
[14] = serum, mice, oral 50 mg/kg, after 60 min., read-out: Concentration in serum
[15] = serum, mice, oral 50 mg/kg, after 120 min., read-out: Concentration in serum
[16] = serum, mice, oral 50 mg/kg, after 240 min., read-out: Concentration in serum
[17] = mice, oral 50 mg/kg, serum, 1-4 hrs., read-out: AUC

Row | SMILES | MIC [1] | MIC [2] | MIC [3] | MIC [4] | MIC [5] | MIC [6] | MIC [7] | MIC [8] | MIC (Proteus Vulgaris HX-19) | concentration at 0.5 h [9, 13] | concentration at 1 h [9, 14] | concentration at 2 h [9, 15] | concentration at 4 h [9, 16] | AUC at 4 h [9, 17] | LD50 (ddY-strain male mice [12]) | other results
1 | CC1COc2c(-n3ccnc3)c(F)cc3c(=O)c(C(=O)O)cn1c23 (centres unmarked) [F, 2,3-dihydro-9-fluoro-10-(1-imidazolyl)-3-methyl-7-oxo-7H-pyrido[1,2,3-de][1,4]benzoxazine-6-carboxylic acid] | 3.12 µg/mL (≈ 9.48 µM) | 0.05 µg/mL (≈ 0.152 µM) | 0.1 µg/mL (≈ 0.304 µM) | 0.39 µg/mL (≈ 1.18 µM) | 1.56 µg/mL (≈ 4.74 µM) | 0.05 µg/mL (≈ 0.152 µM) | 0.19 µg/mL (≈ 0.577 µM) | 3.12 µg/mL (≈ 9.48 µM) | 0.025 µg/mL (≈ 0.0759 µM) | 6400 ± 1800 ng/mL | 2600 ± 1000 ng/mL | 1200 ± 300 ng/mL | 600 ± 200 ng/mL | 7500 ng·h/mL | – | bioavailability when administered orally, in words ([9]; mice, oral, Experiment 2): inferior to the compounds of the present invention in the bioavailability
2 | CCn1cc(C(=O)O)c(=O)c2cc(F)c(N3CCN(C)CC3)cc21 [B, 1-ethyl-1,4-dihydro-6-fluoro-7-[1-(4-methylpiperazinyl)]-4-oxoquinoline-3carboxylic acid] | – | 0.1 µg/mL (≈ 0.3 µM) | 0.2 µg/mL (≈ 0.6 µM) | 0.39 µg/mL (≈ 1.17 µM) | 0.78 µg/mL (≈ 2.34 µM) | 0.1 µg/mL (≈ 0.3 µM) | 0.39 µg/mL (≈ 1.17 µM) | 1.56 µg/mL (≈ 4.68 µM) | 0.1 µg/mL (≈ 0.3 µM) | – | – | – | – | – | – | –
3 | CCn1cc(C(=O)O)c(=O)c2cc(F)c(N3CCNCC3)c(F)c21 [C, 1-ethyl-6,8-difluoro-1,4-dihydro-4-oxo-7-(1-piperazinyl)quinoline-3-carboxylic acid] | 0.78 µg/mL (≈ 2.31 µM) | 0.1 µg/mL (≈ 0.296 µM) | 0.39 µg/mL (≈ 1.16 µM) | 0.2 µg/mL (≈ 0.593 µM) | 3.13 µg/mL (≈ 9.28 µM) | 0.1 µg/mL (≈ 0.296 µM) | 0.39 µg/mL (≈ 1.16 µM) | 0.78 µg/mL (≈ 2.31 µM) | 0.1 µg/mL (≈ 0.296 µM) | – | – | – | – | – | 193 mg/kg | LD50 (ddY-strain male mice [10]): 1,072 mg/kg; AUC at 4 h ([9]; in vivo, po, 50 mg/kg): 12400 ng·h/mL; concentration at 0.5 h ([9]; in vivo, po, 50 mg/kg): 6260 ± 1570 ng/mL; concentration at 1 h ([9]; in vivo, po, 50 mg/kg): 3510 ± 1290 ng/mL; concentration at 2 h ([9]; in vivo, po, 50 mg/kg): 3410 ± 670 ng/mL; concentration at 4 h ([9]; in vivo, po, 50 mg/kg): 1530 ± 270 ng/mL; AUC at 4 h ([11]; in vivo, po): 26000 ng·h/mL; concentration at 0.5 h ([11]; in vivo, po): 11700 ± 1100 ng/mL; concentration at 1 h ([11]; in vivo, po): 12300 ± 800 ng/mL; concentration at 2 h ([11]; in vivo, po): 6400 ± 300 ng/mL; concentration at 4 h ([11]; in vivo, po): 2000 ± 1800 ng/mL
4 | CCn1cc(C(=O)O)c(=O)c2cc(F)c(-n3ccnc3)c(F)c21 [I-a, 1-Ethyl-6,8-difluoro-1,4-dihydro-7-(1-imidazolyl)-4-oxoquinoline-3-carboxylic acid] | 1.56 µg/mL (≈ 4.89 µM) | 0.05 µg/mL (≈ 0.157 µM) | 0.1 µg/mL (≈ 0.313 µM) | 0.2 µg/mL (≈ 0.626 µM) | 3.13 µg/mL (≈ 9.8 µM) | 0.05 µg/mL (≈ 0.157 µM) | 0.39 µg/mL (≈ 1.22 µM) | 6.25 µg/mL (≈ 19.6 µM) | 0.025 µg/mL (≈ 0.0783 µM) | 44800 ± 8900 ng/mL | 39300 ± 5200 ng/mL | 7600 ± 1700 ng/mL | 1700 ± 500 ng/mL | 64900 ng·h/mL | 773 mg/kg | LD50 at 168 h (in vivo): > 4000 mg/kg; concentration at 0.5 h ([11]; plasma, rats, oral, after 30 min., read-out: Concentration in plasma): 54900 ± 3900 ng/mL; concentration at 1 h ([11]; plasma, rats, oral, after 60 min., read-out: Concentration in plasma): 70800 ± 3100 ng/mL; concentration at 2 h ([11]; plasma, rats, oral, after 120 min., read-out: Concentration in plasma): 48000 ± 4300 ng/mL; concentration at 4 h ([11]; plasma, rats, oral, after 240 min., read-out: Concentration in plasma): 31300 ± 3600 ng/mL; AUC at 4 h ([11]; rats, oral, plasma, 1-4 hrs., read-out: AUC): 184000 ng·h/mL
